Experimental data taken from patent US20230288338A1, “LUMINESCENT SUBSTRATE COMPOUND” (NATIONAL INSTITUTE OF ADVANCED INDUSTRIAL SCIENCE AND …, priority 2020, published 2023).

Experiments:
Type in all cases: biochemical
[1] = molecular target: T1, human serum albumin (HSA) (Homo sapiens, UniProt P02768); experiment: Luminescence intensity measurement with human serum albumin; details: for HSA Luminescence intensity: total luminescence over 60 seconds, normalized against native coelenterazine in HSA set to 1.0, 10 µM substrate solution, 10 mM PB buffer pH 7.4
T1 construct: human serum-derived lyophilized powder, Fatty acid free, Globulin free, Sigma-Aldrich; purchased Sigma-Aldrich; host or cells: purified from human serum
T1 sequence (P02768 25-609): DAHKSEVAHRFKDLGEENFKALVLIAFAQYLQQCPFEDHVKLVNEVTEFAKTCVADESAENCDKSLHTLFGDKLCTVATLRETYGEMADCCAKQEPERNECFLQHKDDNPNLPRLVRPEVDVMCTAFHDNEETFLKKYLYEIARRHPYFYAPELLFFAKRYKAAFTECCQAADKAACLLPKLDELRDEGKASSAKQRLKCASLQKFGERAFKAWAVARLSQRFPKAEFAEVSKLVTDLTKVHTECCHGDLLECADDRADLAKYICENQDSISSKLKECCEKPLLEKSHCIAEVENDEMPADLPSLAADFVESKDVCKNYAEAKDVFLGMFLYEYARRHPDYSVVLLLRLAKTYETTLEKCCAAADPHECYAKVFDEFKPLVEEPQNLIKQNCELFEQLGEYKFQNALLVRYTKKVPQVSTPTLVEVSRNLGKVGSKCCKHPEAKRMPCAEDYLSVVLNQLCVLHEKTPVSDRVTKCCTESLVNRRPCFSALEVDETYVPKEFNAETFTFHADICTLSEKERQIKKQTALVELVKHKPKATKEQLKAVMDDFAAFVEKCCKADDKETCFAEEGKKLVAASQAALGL
Protocol: (§1) Human serum albumin (human serum-derived lyophilized powder, Fatty acid free, Globulin free, Sigma-Aldrich), other human protein species or bovine serum albumin (bovine serum-derived lyophilized powder, Sigma-Aldrich) was dissolved in PB Buffer (10 mM, pH 7.4) and used directly for luminescence measurement. As luminescent substrates, NCTZ, DeepBlueC™, MCLA™, control compounds 1 to 3, HuLumino12 and HuLumino22 were used. Each luminescent substrate was dissolved in methanol to give a 2 mM solution. This solution was diluted to 10 µM with 10 mM PB buffer (pH 7.4) for use as a substrate solution. To 90 µL of this solution, 10 µL of 10 mM PB buffer (pH 7.4) containing human serum albumin (HSA) or bovine serum albumin (BSA) was added to initiate a luminescent reaction. The luminescence intensity was measured with a Promega GloMax® 20/20 for 60 seconds, and the results were expressed as total luminescence (Total Luminescence/min) and compared (FIG. 1). […]

[2] = molecular target: T2, bovine serum albumin (BSA) (Bos taurus, UniProt P02769); experiment: Luminescence intensity measurement with bovine serum albumin; details: total luminescence over 60 seconds, normalized against native coelenterazine in HSA set to 1.0; 10 µM substrate solution, 10 mM PB buffer pH 7.4
T2 construct: bovine serum-derived lyophilized powder, Sigma-Aldrich; purchased Sigma-Aldrich; host or cells: purified from bovine serum
T2 sequence (P02769 25-607): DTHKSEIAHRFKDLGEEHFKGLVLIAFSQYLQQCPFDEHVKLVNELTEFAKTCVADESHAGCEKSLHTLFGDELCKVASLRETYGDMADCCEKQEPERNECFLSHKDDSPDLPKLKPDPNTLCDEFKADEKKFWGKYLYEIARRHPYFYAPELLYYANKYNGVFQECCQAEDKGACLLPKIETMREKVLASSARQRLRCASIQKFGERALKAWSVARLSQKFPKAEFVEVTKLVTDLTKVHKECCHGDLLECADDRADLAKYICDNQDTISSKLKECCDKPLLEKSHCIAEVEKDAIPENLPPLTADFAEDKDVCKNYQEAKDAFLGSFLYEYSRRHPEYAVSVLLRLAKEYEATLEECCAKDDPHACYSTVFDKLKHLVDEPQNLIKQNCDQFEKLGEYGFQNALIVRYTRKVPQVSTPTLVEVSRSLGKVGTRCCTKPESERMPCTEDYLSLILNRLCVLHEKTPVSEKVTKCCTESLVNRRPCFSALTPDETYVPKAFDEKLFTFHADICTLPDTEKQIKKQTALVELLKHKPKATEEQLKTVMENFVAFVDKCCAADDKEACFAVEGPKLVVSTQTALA
Protocol: as §1

HSA = molecular target: T3, HSA (Homo sapiens, UniProt P02768); experiment: Michaelis-Menten constant of luminescent substrate/HSA reaction
T3 construct: human serum-derived lyophilized powder, Fatty acid free, Globulin free, Sigma-Aldrich; purchased Sigma-Aldrich; host or cells: purified from human serum
T3 sequence (P02768 25-609): as the sequence (P02768 25-609) above

[3] = test system: various human-derived proteins; experiment: Luminescence intensity upon reaction with various human-derived proteins or bovine serum albumin (FIG. 2)
Protocol: FIG. 2 is a graph showing the luminescence intensity of HuLumino12 (a compound according to an example of the present invention) upon reaction with various human-derived proteins or bovine serum albumin.
as §1

[4] = molecular target: T1, human serum albumin (HSA); experiment: Signal to noise ratio of luminescence in the presence of HSA (FIG. 3); details: luminescent reaction with HSA; for S/N ratio: FIG. 3
From the text: FIG. 3 is a graph showing the luminescence property (signal to noise ratio, S/N ratio) of compounds according to examples of the present invention and comparative examples in the presence of human serum albumin (HSA).

[5] = molecular target: T1, human serum albumin (HSA); experiment: Luminescence duration in the presence of HSA (FIG. 4); details: luminescent reaction with HSA
From the text: FIG. 4 is a graph showing the luminescence property (luminescence duration) of HuLumino12 (a compound according to an example of the present invention) in the presence of human serum albumin (HSA).

[6] = molecular target: T1, human serum albumin (HSA); experiment: HSA concentration-dependent luminescence intensity, detection limit (FIG. 5)
From the text: FIG. 5 is a graph showing the luminescence intensity of HuLumino12 (a compound according to an example of the present invention), which is dependent on the concentration of human serum albumin (HSA).

[7] = molecular target: T1, human serum albumin (HSA); experiment: Luminescence spectrum measurement in the presence of HSA (FIG. 6)
Protocol: FIG. 6 is a graph showing the luminescence wavelength (luminescence spectrum measurement result) of HuLumino12 (a compound according to an example of the present invention) in the presence of human serum albumin (HSA).
The luminescence spectrum was measured with a spectrometer. The peak luminescence wavelength was obtained by being normalized against the peak luminescence intensity which was set to 1.0.

SMILES | HSA Luminescence intensity [1] | BSA Luminescence intensity [2] | other results
COCCCOc1ccc(-c2cn3c(=O)c(Cc4ccccc4)nc-3c(Cc3ccccc3)[nH]2)cc1 [BBlue2.3, reference compound] | 51.5 | 34.3 | 
O=c1c(Cc2ccccc2)nc2c[nH]c(-c3ccc(O)cc3)cn1-2 [Control compound 2, reference compound] | 13.7 | 11.2 | 
COc1ccc(-c2cn3c(=O)c(Cc4ccccc4)nc-3c[nH]2)cc1 [Control compound 3, reference compound] | 554 | 34.4 | 
O=c1c(Cc2ccccc2)nc2c(Cc3ccccc3)[nH]c(-c3ccccc3)cn1-2 [DeepBlueC™, reference compound] | 22.1 | 7.6 | 
COCCCOc1ccc(-c2cn3c(=O)c(Cc4ccccc4)nc-3c[nH]2)cc1 [HuLumino12, 2-benzyl-6-(4-(3-methoxypropoxy)phenyl)imidazo[1,2-a]pyrazin-3(7H)-one] | 912 | 11.9 | luminescence intensity higher than NCTZ/HSA ([1]; with HSA, relative to NCTZ/HSA): 912 fold; Michaelis-Menten constant (HSA): 4.2 µM; specificity of luminescent reaction among various human protein species [3]: specific luminescent reaction when recognized by human serum albumin (HSA); S/N ratio [4]: 37; luminescence duration [5]: 3 h; detection limit of HSA detection [6]: 7.4 µg/mL; peak luminescence wavelength [7]: 427 nm
COCCCOc1ccc(-c2cn3c(=O)c(C)nc-3c[nH]2)cc1 [HuLumino22, 6-(4-(3-methoxypropoxy)phenyl)-2-methylimidazo[1,2-a]pyrazin-3(7H)-one] | 14.2 | 3.1 | 
COc1ccc(/C=C/c2cn3c(=O)c(Cc4ccccc4)nc-3c[nH]2)cc1 [HuLumino30, (E)-2-benzyl-6-(4-methoxystyryl)imidazo[1,2-a]pyrazin-3(7H)-one] | 154 | 19.2 | 
O=c1c(Cc2ccccc2)nc2c[nH]c(/C=C/c3ccc(-c4ccccc4)cc3)cn1-2 [HuLumino44, (E)-6-(2-([1,1′-biphenyl]-4-yl)vinyl)-2-benzylimidazo[1,2-a]pyrazin-3(7H)-one] | 206 | 5.2 | S/N ratio relative to that of HuLumino12 [4]: approximately 4 fold; S/N ratio [4]: 150
O=c1c(Cc2ccccc2)nc2c[nH]c(/C=C/c3ccccc3)cn1-2 [HuLumino45, (E)-2-benzyl-6-styrylimidazo[1,2-a]pyrazin-3(7H)-one] | 61.3 | 9.8 | 
COc1ccc(-c2cn3c(=O)c(C)nc-3c[nH]2)cc1 [MCLA™, reference compound] | 14.1 | 1.8 | 
O=c1c(Cc2ccc(O)cc2)nc2c(Cc3ccccc3)[nH]c(-c3ccc(O)cc3)cn1-2 [NCTZ, reference compound] | 1.0 | 3.9 | Michaelis-Menten constant (HSA): 25.3 µM
